Assay results: patent publication US8742106B2 (Novartis AG, priority 2009, dated 2014)
pKi: −log10 of the molar value.

Legend:
[1] = target: human orexin 2 receptors (Homo sapiens (Human), UniProt O43614); experiment: Calcium Accumulation in Cells (FLIPR), antagonism of orexin A; type: cell-based; conditions: for inhibition at 10 µM: measured at a concentration of 10 μM of compound, read-out: FLIPR hOx2R % inhibition value; for pKi: antagonism of orexin A, Cheng-Prusoff corrected, read-out: FLIPR hOx2R Ki
Outline: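 Cells expressing human orexin 2 receptor, loaded with Fluo4-AM (2 μM) plus probenecid (0.1 mM) for 1 h, then washed. Antagonism read as inhibition of the orexin A calcium fluorescence signal (FLIPR).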

[2] = target: human orexin 1 receptors (Homo sapiens (Human), UniProt O43613); experiment: as above; type: cell-based; conditions: for inhibition at 10 µM: measured at a concentration of 10 μM of compound, read-out: FLIPR hOx1R % inhibition value; for pKi: antagonism of orexin A, Cheng-Prusoff corrected, read-out: FLIPR hOx1R Ki
human orexin 1 receptors, sequence (O43613 whole entry): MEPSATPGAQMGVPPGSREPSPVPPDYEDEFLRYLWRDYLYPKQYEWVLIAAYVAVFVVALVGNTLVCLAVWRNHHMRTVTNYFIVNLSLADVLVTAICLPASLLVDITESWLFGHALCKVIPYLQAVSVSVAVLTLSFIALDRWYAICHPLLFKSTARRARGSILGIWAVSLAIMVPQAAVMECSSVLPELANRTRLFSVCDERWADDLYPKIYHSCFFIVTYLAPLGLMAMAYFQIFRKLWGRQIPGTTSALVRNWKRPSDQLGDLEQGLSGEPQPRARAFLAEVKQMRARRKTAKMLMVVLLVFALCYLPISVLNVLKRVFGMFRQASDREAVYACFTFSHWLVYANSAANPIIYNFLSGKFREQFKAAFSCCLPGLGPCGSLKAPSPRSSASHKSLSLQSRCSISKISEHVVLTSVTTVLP

human orexin 2 receptors, sequence (O43614 whole entry): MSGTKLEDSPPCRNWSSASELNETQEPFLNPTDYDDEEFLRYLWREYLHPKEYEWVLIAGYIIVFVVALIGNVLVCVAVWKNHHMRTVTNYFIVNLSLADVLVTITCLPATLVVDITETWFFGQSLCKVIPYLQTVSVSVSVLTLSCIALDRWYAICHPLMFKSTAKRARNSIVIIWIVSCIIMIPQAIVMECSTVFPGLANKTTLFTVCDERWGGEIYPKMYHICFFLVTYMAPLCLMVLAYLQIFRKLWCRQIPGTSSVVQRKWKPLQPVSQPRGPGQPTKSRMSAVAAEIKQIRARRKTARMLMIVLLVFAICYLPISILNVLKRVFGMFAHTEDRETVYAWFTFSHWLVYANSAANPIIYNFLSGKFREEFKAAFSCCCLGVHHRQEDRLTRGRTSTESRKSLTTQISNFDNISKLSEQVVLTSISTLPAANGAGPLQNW

`Cc1cc(OCC(=O)NC(C)c2cc(CC(C)(C)C)on2)nc2c1c(C1CC1)nn2C` (stereo not drawn) [Example 6.48, 2-(3-cyclopropyl-1,4-dimethyl-1H-pyrazolo[3,4-b]pyridin-6-yloxy)-N-(1-(5-neopentylisoxazol-3-yl)ethyl)acetamide] gave an inhibition at 10 µM [1] of less than 10% and an inhibition at 10 µM [2] of less than 10%.
`Cc1cc(OCC(=O)NCCc2ccccc2)nc2c1c(C1CC1)nn2C` [Example 6.49, 2-(3-cyclopropyl-1,4-dimethyl-1H-pyrazolo[3,4-b]pyridin-6-yloxy)-N-phenethylacetamide] was tested, and the pKi [1] was 6.21 and the inhibition at 10 µM [2] was 21%.
Work on `Cc1cc(OCC(=O)NCCCc2ccccc2)nc2c1c(C1CC1)nn2C` [Example 6.50, 2-(3-cyclopropyl-1,4-dimethyl-1H-pyrazolo[3,4-b]pyridin-6-yloxy)-N-(3-phenylpropyl)acetamide] yielded an inhibition at 10 µM [1] of 42% and an inhibition at 10 µM [2] of 10%.
Molecule `COc1ccc([C@H](C)N(C)C(=O)COc2cc(C)c3c(C4CC4)nn(C)c3n2)cc1` [Example 6.51] has a pKi [1] of 6.24 and an inhibition at 10 µM [2] of 26%.
With `CNC(=O)COc1cc(C)c2c(C3CC3)nn(C)c2n1` [Example 6.52] the inhibition at 10 µM [1] was less than 10% and the inhibition at 10 µM [2] was less than 10%.
Molecule `Cc1cc(OCC(=O)NC(C)C2CC2)nc2c1c(C1CC1)nn2C` (stereo not drawn) [Example 6.53] has an inhibition at 10 µM [1] of 38% and an inhibition at 10 µM [2] of 17%.
Work on `CCn1ccc(C(C)NC(=O)COc2cc(C)c3c(C4CC4)nn(C)c3n2)n1` (stereo not drawn) [Example 6.54] yielded an inhibition at 10 µM [1] of 29% and an inhibition at 10 µM [2] of 44%.
For `Cc1ccc(C(C)NC(=O)COc2cc(C)c3c(C4CC4)nn(C)c3n2)cn1` (stereo not drawn) [Example 6.55], the pKi [1] was 6.28 and the inhibition at 10 µM [2] was 53%.
For `Cc1cc(OCC(=O)N[C@@H](C)C2CCCC2)nc2c1c(C1CC1)nn2C` [Example 6.56, (S)-N-(1-cyclopentylethyl)-2-(3-cyclopropyl-1,4-dimethyl-1H-pyrazolo[3,4-b]pyridin-6-yloxy)acetamide], the inhibition at 10 µM [1] was less than 10% and the inhibition at 10 µM [2] was less than 10%.
In the case of `Cc1cc(OCC(=O)NC(C)c2ccc3c(c2)ncn3C)nc2c1c(C1CC1)nn2C` (stereo not drawn) [Example 6.58, 2-(3-cyclopropyl-1,4-dimethyl-1H-pyrazolo[3,4-b]pyridin-6-yloxy)-N-(1-(1-methyl-1H-benzo[d]imidazol-5-yl)ethyl)acetamide], the pKi [1] was 6.42 and the pKi [2] was 6.00.
With `Cc1ccc([C@H](C)NC(=O)COc2nc3c(cc2C)c(C2CC2)nn3C)cc1` [Example 6.60, (S)-2-(3-cyclopropyl-1,5-dimethyl-1H-pyrazolo[3,4-b]pyridin-6-yloxy)-N-(1-p-tolylethyl)acetamide] the pKi [1] was 5.93 and the inhibition at 10 µM [2] was 11%.
Molecule `COc1ccc(C(C)(C)NC(=O)COc2cc(C)c3c(C4CC4)nn(C)c3n2)cc1` [Example 6.62, 2-(3-cyclopropyl-1,4-dimethyl-1H-pyrazolo[3,4-b]pyridin-6-yloxy)-N-(2-(4-methoxyphenyl)propan-2-yl)acetamide] has a pKi [1] of 6.80 and a pKi [2] of 6.20.
Work on `Cc1cc2c(cn1)[C@@H](NC(=O)COc1cc(C)c3c(C4CC4)nn(C)c3n1)CC2` [Example 6.64, (S)-2-(3-cyclopropyl-1,4-dimethyl-1H-pyrazolo[3,4-b]pyridin-6-yloxy)-N-(3-methyl-6,7-dihydro-5H-cyclopenta[c]pyridin-7-yl)acetamide] yielded a pKi [1] of 7.03 and a pKi [2] of 6.11.
`Cc1cnc2c(c1)CC[C@@H]2NC(=O)COc1cc(C)c2c(C3CC3)nn(C)c2n1` [Example 6.65, (S)-2-(3-cyclopropyl-1,4-dimethyl-1H-pyrazolo[3,4-b]pyridin-6-yloxy)-N-(3-methyl-6,7-dihydro-5H-cyclopenta[b]pyridin-7-yl)acetamide] was tested, and the pKi [1] was 6.08 and the inhibition at 10 µM [2] was less than 10%.
For `Cc1ccc(CNC(=O)COc2cc(C)c3c(C4CC4)nn(C)c3n2)cc1` [Example 6.66, 2-(3-cyclopropyl-1,4-dimethyl-1H-pyrazolo[3,4-b]pyridin-6-yloxy)-N-(4-methylbenzyl)acetamide], the pKi [1] was 5.88 and the pKi [2] was 5.41.
